{"source": "patent US5770611A", "about": "“Indole derivatives as 5HT1 -like agonists” (Pfizer Inc., priority 1994, dated 1998)", "key": {"[1]": {"target": "T1, \"5-HT1 -like\" receptor (dog isolated saphenous vein strip) (Canis lupus familiaris, UniProt P79250)", "T1 construct": "on dog isolated saphenous vein strip; from tissue; host or cells: dog isolated saphenous vein strip", "T1 sequence (P79250 whole entry)": "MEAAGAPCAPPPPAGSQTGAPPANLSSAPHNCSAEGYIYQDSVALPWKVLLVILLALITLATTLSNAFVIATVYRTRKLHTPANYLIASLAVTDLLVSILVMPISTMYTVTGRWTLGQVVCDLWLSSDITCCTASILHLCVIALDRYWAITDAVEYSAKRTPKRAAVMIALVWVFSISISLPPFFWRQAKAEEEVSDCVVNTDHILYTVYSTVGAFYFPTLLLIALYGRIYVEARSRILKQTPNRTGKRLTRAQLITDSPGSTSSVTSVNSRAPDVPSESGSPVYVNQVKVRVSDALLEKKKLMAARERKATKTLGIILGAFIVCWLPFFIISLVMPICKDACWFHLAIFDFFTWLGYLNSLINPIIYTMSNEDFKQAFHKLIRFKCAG", "assay": "contraction of isolated dog saphenous vein strip (\"5-HT1 -like\" receptor agonist activity)", "type": "cell-based", "conditions": "for EC50: concentration causing 50% of the maximum contraction effected by the compound; for RELATIVE POTENCY EC50 (compound)/EC50 (5-HT): ratio to 5-HT (higher = less potent)", "excerpt": "The following Table illustrates the in vitro activities for a range of the compounds of the invention on dog isolated saphenous vein strip. EC50 represents the concentration of compound which causes 50% of the maximum contraction effected by it."}, "[2]": {"target": "T1, \"5-HT1 -like\" receptor (dog isolated saphenous vein strip)", "conditions": "antagonism of the agonist-induced contraction; cited from earlier work"}}}
{"smiles": "CC(C)(O)CCc1ccc2[nH]cc(C[C@H]3CCCN3CC3CCCNC3=O)c2c1", "note": "(single isomer, unassigned) [Example 9A]", "values": [{"measurement": "EC50", "setting": "[1]", "result": 3, "unit": "µM"}, {"measurement": "RELATIVE POTENCY EC50 (compound)/EC50 (5-HT)", "setting": "[1]", "result": 71}]}
{"smiles": "CC(C)(O)CCc1ccc2[nH]cc(C[C@H]3CCCN3CC3CCCNC3=O)c2c1", "note": "(single isomer, unassigned) [Example 9B]", "values": [{"measurement": "EC50", "setting": "[1]", "result": 1.8, "unit": "µM"}, {"measurement": "RELATIVE POTENCY EC50 (compound)/EC50 (5-HT)", "setting": "[1]", "result": 78}]}
{"smiles": "CC(C)(O)CCc1ccc2[nH]cc(C[C@H]3CCCN3CC3CCN(Cc4ccccc4)C3)c2c1", "note": "(stereo partly drawn) [Example 1]", "values": [{"measurement": "EC50", "setting": "[1]", "result": 0.62, "unit": "µM"}, {"measurement": "RELATIVE POTENCY EC50 (compound)/EC50 (5-HT)", "setting": "[1]", "result": 11.0}]}
{"smiles": "CC(C)(O)CCc1ccc2[nH]cc(C[C@H]3CCCN3C[C@H]3CCCN3S(C)(=O)=O)c2c1", "note": "[Example 5, 5-(3-Hydroxy-3-methyl-1-butyl)-3-[N-(N-methane-sulphonyl-2(R)-pyrrolidinylmethyl)-2(R)-pyrrolidinylmethyl]-1H-indole]", "values": [{"measurement": "EC50", "setting": "[1]", "result": 0.18, "unit": "µM"}, {"measurement": "RELATIVE POTENCY EC50 (compound)/EC50 (5-HT)", "setting": "[1]", "result": 2.4}]}
{"smiles": "CSc1ccc2c(c1)C(N1CCN(C)CC1)Cc1ccccc1S2", "note": "(stereo not drawn) [methiothepin]", "values": [{"measurement": "block of contraction of dog saphenous vein strip", "setting": "[2]", "result": "This effect can be blocked by methiothepin"}]}
